Test results from patent US20230390401A1, “RAPIDLY RELEASED BIOORTHOGONAL CAGING GROUPS” (University of Utah Research Foundation, priority 2018, published 2023).
Like-named read-outs stand apart in the source and are kept apart here.

Tests used:
zebrafish embryos [1] = test: In vivo uncaging of resorufin fluorescence in zebrafish embryos implanted with Tz-PS beads; settings: c=10 μM, t=8 h, Tz-PS implanted into yolk sacs
[2] = Kinetics of Tz-induced release from ICPr/ICPrc groups in PBS:DMSO; settings: for bimolecular rate constant k2: PEG-DPTz c=0.2 mM, excess probe c=2 mM, T=37° C., PBS:DMSO (9:1), pseudo-first order fit; for k1,elim, release of fluorophore from 3-oxopropyl intermediate: in PBS, after reaction with PEG-DPTz
Experimental: (§1) Fitting the disappearance of PEG-DPTz (c=0.2 mM) absorbance in the presence of excess ICPr-O-NA or ICPrc-NH-NA (c=2 mM;T=37° C., PBS:DMSO (9:1)) to a pseudo-first order rate equation provided the bimolecular rate constants k2(ICPr-O-NA)=4.0±0.2 M^−1s^−1 and k2(ICPrc-NH-NA)=1.1±0.2 M^−1s^−1, respectively. Release of the fluorophores in PBS from the postulated 3-oxopropyl intermediate was delayed relative to the reaction of the ICPr/ICPrc-groups with PEG-DPTz (k1,elim(HO-NA)=1.6×10^−4 s^−1; k1,elim(H2N-NA)=5.00×10^−5 s^−1; FIG. 4B, right column) in agreement with studies of cargo release from such groups. The aldehyde intermediate was detectable by NMR in DMSO-d6:D2O (9:1). To our delight, fluorophore release in diluted human serum (T=37° C., PBS:serum (1:1)) reached completion in few minutes because serum albumin can catalyze the β-elimination reaction.

[3] = Fluorophore release (β-elimination) in diluted human serum; settings: T=37° C., PBS:serum (1:1)
Experimental: as §1

[4] = Stability in serum in the absence of Tz; format: in vitro ADME, human
zebrafish embryos [5] = settings: medium c=0, 1, 10 μM, t=8 h
Experimental: Zebrafish embryos were used as a model organism to evaluate the activity of uncaged payload molecules in vivo. […] For the fluorescence study, Tz-PSs were implanted into the yolk sacs of zebrafish embryos followed by incubation with ICPr-rsf (c=10 μM). […] Mexiletine is a voltage-gated sodium channel blocker known to induce cardiac arrhythmia, and which has been reported to decrease heart rate.
UV-VIS photospectrometic kinetic measurements were performed on a microplate reader SpectramaX M5 (Molecular Device, USA) in 96-well plates or 1 mL quartz cuvette. Cell proliferation assays were performed on an Envision 2104 Multilabel Reader (PerkinElmer, USA). Zebrafish Imaging and Efficiency Test (Heart Rate Reduction) were performed with Zeiss SteREO Discovery.V8 microscope (Zeiss, Jena, Germany) fitted with a PentaFluor S 120 vertical illuminator and coupled with an Xcite Series 120PC light source.

A549 lung cancer cells = test: Cytotoxicity assay (CellTiter-Glo 2.0 viability)
Experimental: A549 lung cancer cells (ATCC, USA) were maintained in a humidified CO2 (5%) incubator at 37° C. in RPMI (Thermo Fisher, USA) supplemented with 10% fetal bovine serum in the presence of 1% Penicillin-Streptomycin-Glutamine (Thermo Fisher, USA) and 0.2% Normocin (InvivoGen, USA).
The cells were plated in 96-well TC treated plates (PerkinElmer, USA) at a 6,000 cells/well density 24 h prior to the addition of the drugs. All drugs, prodrugs and PEG-DPTz in DMSO stock solution were serially diluted in pre-warmed culture medium at 37° C. For samples assessing the reaction-induced drug release, prodrugs were added to the cells first (100 μL final volume per well) in a series of final concentrations ranging from 0.005 to 10 μM followed by addition of PEG-DPTz (20, 40 and 80 μM).
After 72 h incubation at 37° C., cell proliferation was assessed by a CellTiter-Glo©2.0 viability assay according to the manufacturer's instructions. After 15 min incubation at 25° C., the medium was gently measured with Envision 2104 Multilabel Reader (PerkinElmer, USA) to get the luminescent based on quantitation of the ATP present, an indicator of metabolically active cells. The proliferation assay was performed in quadruplet measurements (n=4). EC50 values were derived from the normalized cell growth and Growth/Sigmoidal formula were fitted and generated with Origin 8.0. […] The results are expressed as the mean±standard deviation (n=4).

[6] = read-out: EC50 cytotoxicity, prodrug combined with PEG-DPTz, A549 cells, prodrug + excess PEG-DPTz (c=80 μM), 72 h

[C-]#[N+]CCCOc1ccc2nc3ccc(=O)cc-3oc2c1 [ICPr-rsf, 3-isocyanopropyl resorufin ether]
fluorescence staining, fish with Tz-PS versus controls with unmodified beads (zebrafish embryos [1]): 5.2 fold

[C-]#[N+]CCCOc1ccc2c3c(cccc13)C(=O)N(CCOCCOCCOCCOC)C2=O [ICPr-O-NA, N-(methyl-PEG4)-4-(3-isocyanopropyl-1-oxy)-1,8-naphthalimide]
bimolecular rate constant k2 [2]: 4.0 ± 0.2 M⁻¹ s⁻¹
apparent first-order rate constant k1,elim in serum [3]: 0.0042 s⁻¹
stability in serum [4]: completely stable in serum for at least three days

[C-]#[N+]CCCOC(=O)NC(C)COc1c(C)cccc1C (centres unmarked) [ICPrc-mex, N-(3-isocyanopropyl-1-carbamoyl)mexiletine]
heart rate in control fish bearing unmodified beads (zebrafish embryos [5]): no changes were observed
heart rate in fish with implanted Tz-PS (zebrafish embryos [5]; normalized to heart rate at t=0 h): dose-dependent decrease in heart rate

COCCOCCOCCOCCN1C(=O)c2cccc3c(O)ccc(c23)C1=O [HO-NA, N-(methyl-PEG4)-4-hydroxy-1,8-naphthalimide]
k1,elim, release of fluorophore from 3-oxopropyl intermediate [2]: 0.00016 s⁻¹

[C-]#[N+]CCCOC(=O)NC1CC(OC2CC(O)(C(=O)CO)Cc3c(O)c4c(c(O)c32)C(=O)c2c(OC)cccc2C4=O)OC(C)C1O (centres unmarked) [ICPrc-dox, N-(3-isocyanopropyl-1-carbamoyl)doxorubicin]
EC50 (A549 lung cancer cells; [6]): 165 ± 35 nM

[C-]#[N+]CCCOC(=O)Nc1ccc2c3c(cccc13)C(=O)N(CCOCCOCCOCCOC)C2=O [ICPrc-NH-NA]
bimolecular rate constant k2 [2]: 1.1 ± 0.2 M⁻¹ s⁻¹
apparent first-order rate constant k1,elim in serum [3]: 0.0016 s⁻¹

N-(methyl-PEG4)-4-(3-isocyanopropyl-carbamoyl)amino-1,8-naphthalimide [ICPrc-NH-NA]
stability in serum [4]: completely stable in serum for at least three days

COc1cccc2c1C(=O)c1c(O)c3c(c(O)c1C2=O)C[C@@](O)(C(=O)CO)C[C@@H]3O[C@H]1C[C@H](N)[C@H](O)[C@H](C)O1 [dox, doxorubicin, reference compound]
EC50 (A549 lung cancer cells; Homo sapiens, A549, 72 h, read-out: EC50 cytotoxicity, free drug): 144 ± 28 nM

[C-]#[N+]CCCOC(=O)N1C2CN3C4=C(C(=O)C(N)=C(C)C4=O)C(COC(N)=O)C3(OC)C21 (centres unmarked) [ICPrc-mmC, N-(3-isocyanopropyl-1-carbamoyl)Mitomycin C]
EC50 (A549 lung cancer cells; [6]): 244 ± 17 nM

COCCOCCOCCOCCN1C(=O)c2cccc3c(N)ccc(c23)C1=O [Structure H2N-NA, N-(methyl-PEG4)-4-amino-1,8-naphthalimide]
k1,elim, release of fluorophore from 3-oxopropyl intermediate [2]: 5e-05 s⁻¹
